# Several values for one entry are separate records, joined by “and”; a condition that tells them apart may be missing. Equal entries are not always repeated. Where two headings read alike, the source gives them in different places.
# Key:
# GAL-7 [1] = target: T1, GAL-7 (Homo sapiens, UniProt P47929); experiment: Direct native ESI-MS of the GAL-7 homodimer with a mixture of ten glycans (G2, G5-G13), 200 mM ammonium acetate, pH 6.9.; format: binding; conditions: SD, n = 8; read-out: Kd (nMS), Table S4
# T1 construct: gene LGALS7; homodimer (monomer MW 14.94 kDa)
# T1 sequence (P47929 whole entry): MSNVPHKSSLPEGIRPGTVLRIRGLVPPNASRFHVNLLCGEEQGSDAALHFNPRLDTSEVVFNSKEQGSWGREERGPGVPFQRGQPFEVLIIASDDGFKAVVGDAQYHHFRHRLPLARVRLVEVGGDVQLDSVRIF
# GAL-7 [2] = target: T1, GAL-7; experiment: COIN-nMS of the GAL-7 homodimer with a mixture of ten glycans (G2, G5-G13), 200 mM ammonium acetate, pH 6.9.; format: binding; conditions: SD, n = 8; read-out: Kd (COIN-nMS), Table S4
# DC-SIGN CRD [3] = target: T2, DC-SIGN CRD (Homo sapiens, UniProt Q9NNX6); experiment: Direct native ESI-MS (submicron emitters) with a mixture of ten glycans (G2, G5, G10, G14-G20), 200 mM ammonium acetate with 2.5 mM calcium salt, pH 7.4.; format: binding; parameters: gene CD209; carbohydrate recognition domain, residues 250-404, MW 17 794 Da; conditions: SD, n = 6; read-out: Kd (nMS), Table S5
# T2 sequence (Q9NNX6 250-404): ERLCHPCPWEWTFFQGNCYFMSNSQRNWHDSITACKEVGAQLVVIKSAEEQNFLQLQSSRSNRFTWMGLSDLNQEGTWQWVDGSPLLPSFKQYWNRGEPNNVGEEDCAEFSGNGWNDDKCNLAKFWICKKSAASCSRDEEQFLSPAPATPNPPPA
# DC-SIGN CRD [4] = target: T2, DC-SIGN CRD; experiment: COIN-nMS (submicron emitters) with a mixture of ten glycans (G2, G5, G10, G14-G20), 200 mM ammonium acetate with 2.5 mM calcium salt, pH 7.4.; format: binding; parameters: gene CD209; carbohydrate recognition domain, residues 250-404, MW 17 794 Da; conditions: SD, n = 6; read-out: Kd (COIN-nMS), Table S5
# GAL-3C [5] = target: T3, GAL-3C (Homo sapiens, UniProt P17931); experiment: Direct native ESI-MS at known concentrations with single glycans, 200 mM ammonium acetate, pH 6.9, 25 °C.; format: binding; parameters: gene LGALS3; C-terminal carbohydrate recognition domain fragment, residues 107-250; conditions: SD; read-out: Kd (nMS), Table S2
# T3 sequence (P17931 107-250): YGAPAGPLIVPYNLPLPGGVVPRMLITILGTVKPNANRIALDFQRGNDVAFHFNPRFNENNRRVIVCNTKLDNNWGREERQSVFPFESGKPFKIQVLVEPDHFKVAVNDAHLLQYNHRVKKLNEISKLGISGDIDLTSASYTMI
# GAL-3C [6] = target: T3, GAL-3C; experiment: COIN-nMS (slow mixing in nanoESI emitter, fit of eq 12) at one glycan concentration, 200 mM ammonium acetate, pH 6.9, 25 °C.; format: binding; parameters: gene LGALS3; C-terminal carbohydrate recognition domain fragment, residues 107-250; conditions: SD; read-out: Kd (COIN-nMS, individual experiments), Table S2
# GAL-3C [7] = target: T3, GAL-3C; experiment: COIN-nMS, global fit over several glycan concentrations, 200 mM ammonium acetate, pH 6.9, 25 °C.; format: binding; parameters: gene LGALS3; C-terminal carbohydrate recognition domain fragment, residues 107-250; conditions: SD; read-out: Kd (COIN-nMS, global fit), Table S2
# GAL-3C [8] = target: T3, GAL-3C; experiment: Direct native ESI-MS with a mixture of ten glycans (G2, G5-G13), 200 mM ammonium acetate, pH 6.9.; format: binding; parameters: gene LGALS3; C-terminal carbohydrate recognition domain fragment, residues 107-250; conditions: SD, n = 8; read-out: Kd (nMS), Table S3
# GAL-3C [9] = target: T3, GAL-3C; experiment: COIN-nMS with a mixture of ten glycans (G2, G5-G13), 200 mM ammonium acetate, pH 6.9.; format: binding; parameters: gene LGALS3; C-terminal carbohydrate recognition domain fragment, residues 107-250; conditions: SD, n = 8; read-out: Kd (COIN-nMS), Table S3
# GAL-3C [10] = target: T3, GAL-3C; experiment: Literature reference values quoted in the results table, conditions not restated.; format: binding; parameters: gene LGALS3; C-terminal carbohydrate recognition domain fragment, residues 107-250; conditions: SD; read-out: Kd (Literature), Table S2; cited from earlier work
# MAA [11] = target: T4, MAA; experiment: COIN-CaR-nMS (collisional release of bound glycan, fit of eq 13) with single purified glycans, 200 mM ammonium acetate, pH 6.9.; format: binding; conditions: SD; read-out: Kd (COIN-CaR-nMS), Table S6
# T4 construct: commercial lectin mixture
# MAA [12] = target: T4, MAA; experiment: Isothermal titration calorimetry, 200 mM ammonium acetate, pH 6.8-6.9, 25 °C.; format: binding; conditions: SD; read-out: Kd (Literature), Table S6, determined by ITC
# Sig7-Fc = Sig7-Fc (Homo sapiens, UniProt Q9Y286); experiment: COIN-CaR-nMS with purified oligosaccharides listed beside the library glycans, 200 mM ammonium acetate, pH 6.9.; format: binding; parameters: gene SIGLEC7; residues 1-345, human IgG1 Fc fusion and C-terminal His6, from CHO cells, MW 150 kDa; conditions: SD; read-out: Kd, purified oligosaccharides in Tables S12, S13, S18, S19
# Sig7-Fc, sequence (Q9Y286 1-345): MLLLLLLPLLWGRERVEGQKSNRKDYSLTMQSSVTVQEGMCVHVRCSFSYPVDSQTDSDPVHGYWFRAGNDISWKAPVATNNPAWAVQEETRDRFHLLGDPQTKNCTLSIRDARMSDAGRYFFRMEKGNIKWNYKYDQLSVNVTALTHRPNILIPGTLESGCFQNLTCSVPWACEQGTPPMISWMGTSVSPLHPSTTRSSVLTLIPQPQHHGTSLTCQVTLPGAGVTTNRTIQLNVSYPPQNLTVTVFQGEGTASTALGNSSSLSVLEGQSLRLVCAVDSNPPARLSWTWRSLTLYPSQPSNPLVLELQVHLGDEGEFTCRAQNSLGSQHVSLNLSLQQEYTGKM
# MAA [13] = target: T4, MAA; experiment: as above; format: binding; conditions: SD; read-out: Kd, purified oligosaccharides in Tables S12, S13, S18, S19
# GAL-7 [14] = target: T1, GAL-7; experiment: Direct native ESI-MS at known concentrations with single glycans, 200 mM ammonium acetate, pH 6.9, 25 °C.; format: binding; conditions: SD; read-out: Kd (nMS), Table S2
# GAL-7 [15] = target: T1, GAL-7; experiment: COIN-nMS (slow mixing in nanoESI emitter, fit of eq 12) at one glycan concentration, 200 mM ammonium acetate, pH 6.9, 25 °C.; format: binding; conditions: SD; read-out: Kd (COIN-nMS, individual experiments), Table S2
# GAL-7 [16] = target: T1, GAL-7; experiment: COIN-nMS, global fit over several glycan concentrations, 200 mM ammonium acetate, pH 6.9, 25 °C.; format: binding; conditions: SD; read-out: Kd (COIN-nMS, global fit), Table S2
# [17] = target: RCA-I (Ricinus communis agglutinin) (Ricinus communis, UniProt P06750); format: binding
# Siglec-7 = conditions: ITC; cited from earlier work
# GAL-7 homodimer [18] = target: T5, GAL-7 homodimer (Homo sapiens, UniProt P47929); experiment: COIN-nMS affinity measurement; format: binding; parameters: key: NB: No binding detected; conditions: glycans present as a mixture (G2, G5-G13); average of eight measurements; pH 6.9
# T5 construct: made in house
# T5 sequence (P47929 whole entry): as the sequence (P47929 whole entry) above
# GAL-7 homodimer [19] = target: T5, GAL-7 homodimer; experiment: direct nMS affinity measurement; format: binding; parameters: key: NB: No binding detected; conditions: glycans present as a mixture (G2, G5-G13); pH 6.9
# GAL-3C [20] = target: T3, GAL-3C; experiment: COIN-nMS affinity measurement; format: binding; parameters: human Galectin-3 (GAL-3C, residues 107–250, molecular weight (MW) 16 327 Da); key: NB: No binding detected; conditions: glycans present as a mixture (G2, G5-G13); average of eight measurements; pH 6.9
# GAL-3C [21] = target: T3, GAL-3C; experiment: direct nMS (ESI-MS) affinity measurement at known concentrations; format: binding; parameters: human Galectin-3 (GAL-3C, residues 107–250, molecular weight (MW) 16 327 Da); key: NB: No binding detected; conditions: glycans present as a mixture (G2, G5-G13); pH 6.9
compound,measurement,setting,value
"C[C@@H]1O[C@@H](O[C@H]2[C@H](O[C@H]3[C@H](O)[C@@H](O)C(O)O[C@@H]3CO)O[C@H](CO)[C@H](O)[C@@H]2O)[C@@H](O)[C@H](O)[C@@H]1O (stereo partly drawn) [G2, α-L-Fuc-(1→2)-β-D-Gal-(1→4)-D-Glc (2'-fucosyllactose)]",Kd,GAL-7 [1],237 µM
same,Kd,GAL-7 [2],241 µM
same,Kd,DC-SIGN CRD [3],2100 µM
same,Kd,DC-SIGN CRD [4],660 µM
same,Kd,GAL-3C [5],26.6 µM
same,Kd,GAL-3C [6],27 µM and 24.8 µM and 28 µM
same,Kd,GAL-3C [7],23.2 µM
same,Kd,GAL-3C [8],166 µM
same,Kd,GAL-3C [9],156 µM
same,Kd,GAL-3C [10],47.6 µM
"CC(=O)N[C@H]1C(O)O[C@H](CO)[C@@H](O[C@@H]2O[C@H](CO)[C@H](O)[C@H](O[C@H]3O[C@H](CO)[C@H](O)[C@H](O)[C@H]3O)[C@H]2O[C@@H]2O[C@@H](C)[C@@H](O)[C@@H](O)[C@@H]2O)[C@@H]1O (stereo partly drawn) [G1, α-D-Gal-(1→3)-[α-L-Fuc(1→2)]-β-D-Gal(1→4)-D-GlcNAc]",Kd,GAL-3C [5],4.2 µM
same,Kd,GAL-3C [6],3.2 µM and 3.7 µM and 5.8 µM
same,Kd,GAL-3C [7],3.8 µM
same,Kd,GAL-3C [10],4.5 µM
"CC(=O)N[C@H]1[C@H]([C@H](O)[C@H](O)CO)O[C@@](O[C@H]2[C@@H](O)[C@@H](CO)O[C@@H](O[C@H]3[C@H](O)[C@@H](O)C(O)O[C@@H]3CO)[C@@H]2O)(C(=O)O)C[C@@H]1O (stereo partly drawn) [G22, 3SL, 3'-sialyllactose, α-D-Neu5Ac-(2→3)-β-D-Gal-(1→4)-D-Glc]",Kd,MAA [11],3.5 µM
same,Kd,MAA [12],3.6 µM
same,Kd,Sig7-Fc,277 µM
"CC(=O)N[C@H]1[C@H]([C@H](O)[C@H](O)CO)O[C@@](O[C@H]2[C@@H](O)[C@@H](CO)O[C@@H](O[C@H]3[C@H](O)[C@@H](NC(C)=O)C(O)O[C@@H]3CO)[C@@H]2O)(C(=O)O)C[C@@H]1O (stereo partly drawn) [G25, 3SLN, α-D-Neu5Ac-(2→3)-β-D-Gal-(1→4)-D-GlcNAc]",Kd,MAA [13],2.14 µM
same,Kd,Sig7-Fc,267 µM
"CC(=O)N[C@H]1[C@H](O[C@H]2[C@@H](O)[C@@H](CO)O[C@@H](O[C@H]3[C@H](O[C@@H]4O[C@@H](C)[C@@H](O)[C@@H](O)[C@@H]4O)[C@@H](O)C(O)O[C@@H]3CO)[C@@H]2O)O[C@H](CO)[C@@H](O[C@@H]2O[C@H](CO)[C@H](O)[C@H](O)[C@H]2O)[C@@H]1O[C@@H]1O[C@@H](C)[C@@H](O)[C@@H](O)[C@@H]1O (stereo partly drawn) [G3, Gal-(1→4)-[α-L-Fuc(1→3)]-β-D-GlcNAc-(1→3)-β-D-Gal(1→4)[α-L-Fuc(1→3)]-D-Glc]",Kd,GAL-7 [14],518 µM
same,Kd,GAL-7 [15],524 µM and 507 µM and 537 µM
same,Kd,GAL-7 [16],521 µM
CC(=O)N[C@H]1[C@H](O[C@H]2[C@H](O)[C@@H](NC(C)=O)C(O)O[C@@H]2CO[C@@H]2O[C@@H](C)[C@@H](O)[C@@H](O)[C@@H]2O)O[C@H](CO)[C@@H](O[C@@H]2O[C@H](CO[C@H]3O[C@H](CO)[C@@H](O)[C@H](O)[C@@H]3O[C@@H]3O[C@H](CO)[C@@H](O[C@@H]4O[C@H](CO)[C@H](O)[C@H](O)[C@H]4O)[C@H](O)[C@H]3NC(C)=O)[C@@H](O)[C@H](O[C@H]3O[C@H](CO)[C@@H](O)[C@H](O)[C@@H]3O[C@@H]3O[C@H](CO)[C@@H](O[C@@H]4O[C@H](CO)[C@H](O)[C@H](O)[C@H]4O)[C@H](O)[C@H]3NC(C)=O)[C@@H]2O)[C@@H]1O (some centres unmarked) [HexNAc4Hex5Fuc1],Kd,[17]; pH 6.9; read-out: Kd (Native),1.4 ± 0.4 µM
CC(=O)N[C@H]1[C@H](O[C@H]2[C@H](O)[C@@H](NC(C)=O)C(O)O[C@@H]2CO)O[C@H](CO)[C@@H](O[C@@H]2O[C@H](CO[C@H]3O[C@H](CO)[C@@H](O)[C@H](O)[C@@H]3O[C@@H]3O[C@H](CO)[C@@H](O[C@@H]4O[C@H](CO)[C@H](O)[C@H](O)[C@H]4O)[C@H](O)[C@H]3NC(C)=O)[C@@H](O)[C@H](O[C@H]3O[C@H](CO)[C@@H](O)[C@H](O)[C@@H]3O[C@@H]3O[C@H](CO)[C@@H](O[C@@H]4O[C@H](CO)[C@H](O)[C@H](O)[C@H]4O)[C@H](O)[C@H]3NC(C)=O)[C@@H]2O)[C@@H]1O (some centres unmarked) [HexNAc4Hex5],Kd,[17]; read-out: Kd (Native); pH 6.9,1.22 ± 0.03 µM
"CC(=O)N[C@H]1[C@H]([C@H](O)[C@H](O)CO)O[C@@](O[C@H](CO)[C@@H](O)[C@@H]2O[C@@](O[C@H]3[C@@H](O)[C@@H](CO)O[C@@H](O[C@H]4[C@H](O)[C@@H](O)C(O)O[C@@H]4CO)[C@@H]3O)(C(=O)O)C[C@H](O)[C@H]2NC(C)=O)(C(=O)O)C[C@@H]1O (stereo partly drawn) [GD3, α-D-Neu5Ac-(2→8)-α-D-Neu5Ac-(2→3)-β-D-Gal-(1→4)-D-Glc]",Kd,Siglec-7,98 µM
β-D-Gal(1→3)-[α-L-Fuc(1→4)]-β-D-GlcNAc(1→3)-β-D-Gal(1→4)-[α-L-Fuc(1→3)]-β-D-Glc [Glycan G11],Kd (COIN-nMS),GAL-7 homodimer [18],NB and do not bind
same,Kd (nMS),GAL-7 homodimer [19],NB
same,Kd (COIN-nMS),GAL-3C [20],NB and do not bind
same,Kd (nMS),GAL-3C [21],NB
